Patent publication US20060134068A1, “Treatment of cancer by simultaneous inhibiton of BRAF and restoration or mimicry of p16INK4A activity” (Mount Sinai School of Medicine of New York University, priority 2004, published 2006)

Assays:
[1] = test system: mBRAF positive melanoma cells; settings: mice, Collisson et al. 2003; cited from earlier work
[2] = test system: 624Mel, WM35, A375, and Mel1363 cells; assay: Preliminary chemotherapeutic treatment, daily cell counting and colony formation; type: cell-based; settings: after 6-24 hr treatment, both concentrations
CDK4 = CDK4 (Homo sapiens, UniProt P11802); settings: Kubo et al. 1999; cited from earlier work
[3] = test system: untreated, advanced, melanoma; settings: 17 patients, treatment for a median of about 3 months; cited from earlier work

CDK4, sequence (P11802 whole entry, species assumed): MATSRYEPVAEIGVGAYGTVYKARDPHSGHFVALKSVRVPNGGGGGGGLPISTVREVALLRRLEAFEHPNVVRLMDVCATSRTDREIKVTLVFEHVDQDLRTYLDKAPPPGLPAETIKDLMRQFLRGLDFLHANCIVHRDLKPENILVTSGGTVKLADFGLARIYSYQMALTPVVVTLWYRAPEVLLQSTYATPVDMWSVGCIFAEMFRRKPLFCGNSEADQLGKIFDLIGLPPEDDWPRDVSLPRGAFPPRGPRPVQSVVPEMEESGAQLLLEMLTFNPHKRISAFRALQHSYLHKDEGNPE
CDK4, sequence (P24385 whole entry partner, species assumed): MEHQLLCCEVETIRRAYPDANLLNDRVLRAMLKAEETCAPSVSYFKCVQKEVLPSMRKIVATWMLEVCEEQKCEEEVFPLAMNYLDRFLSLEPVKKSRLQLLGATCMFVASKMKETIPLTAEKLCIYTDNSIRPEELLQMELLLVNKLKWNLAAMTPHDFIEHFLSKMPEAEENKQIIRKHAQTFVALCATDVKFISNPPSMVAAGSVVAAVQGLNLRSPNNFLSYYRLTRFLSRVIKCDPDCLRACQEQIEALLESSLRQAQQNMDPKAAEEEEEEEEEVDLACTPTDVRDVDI

O=C(NOCC1CC1)c1ccc(F)c(F)c1Nc1ccc(I)cc1Cl [CI 1040]
pulmonary metastases [1]: suppressed

N.N.[Cl][Pt][Cl] [cisplatin]
growth inhibition [2]: Growth inhibition was observed

CN1CC[C@H](c2c(O)cc(O)c3c(=O)cc(-c4ccccc4Cl)oc23)[C@H](O)C1 [flavopiridol]
inhibition of CDK4 activity, rank among the compounds (CDK4): most potent inhibitor | clinical response [3]: no response

CC(=O)O[C@H]1C(=O)[C@@]2(C)[C@H]([C@H](OC(=O)c3ccccc3)[C@]3(O)C[C@H](OC(=O)[C@H](O)[C@@H](NC(=O)c4ccccc4)c4ccccc4)C(C)=C1C3(C)C)[C@]1(OC(C)=O)CO[C@@H]1C[C@@H]2O [taxol]
growth inhibition [2]: Growth inhibition was observed
